B1: TNFb: enhancer molecule, 50 ng/ml; Sigma Aldrich (protein, UniProt P01374 35-205, looked up)
Lymphotoxin-alpha: LPGVGLTPSAAQTARQHPKMHLAHSTLKPAAHLIGDPSKQNSLLWRANTDRAFLQDGFSLSNNSLLVPTSGIYFVYSQVVFSGKAYSPKATSSPLYLAHEVQLFSSQYPFHVPLLSSQKMVYPGLQEPWLHSMYHGAAFQLTQGDQLSTHTDGIPHLVLSPSTVFFGAFAL
B2: IL12: interleukin modulator, 50 ng/ml; Sigma Aldrich (protein, UniProt P29459 23-219; P29460 23-328, looked up)
Interleukin-12 subunit alpha: RNLPVATPDPGMFPCLHHSQNLLRAVSNMLQKARQTLEFYPCTSEEIDHEDITKDKTSTVEACLPLELTKNESCLNSRETSFITNGSCLASRKTSFMMALCLSSIYEDLKMYQVEFKTMNAKLLMDPKRQIFLDQNMLAVIDELMQALNFNSETVPQKSSLEEPDFYKTKIKLCILLHAFRIRAVTIDRVMSYLNAS
Interleukin-12 subunit beta: IWELKKDVYVVELDWYPDAPGEMVVLTCDTPEEDGITWTLDQSSEVLGSGKTLTIQVKEFGDAGQYTCHKGGEVLSHSLLLLHKKEDGIWSTDILKDQKEPKNKTFLRCEAKNYSGRFTCWWLTTISTDLTFSVKSSRGSSDPQGVTCGAATLSAERVRGDNKEYEYSVECQEDSACPAAEESLPIEVMVDAVHKLKYENYTSSFFIRDIIKPDPPKNLQLKPLKNSRQVEVSWEYPDTWSTPHSYFSLTFCVQVQGKSKREKKDRVFTDKTSATVICRKNASISVRAQDRYYSSSWSEWASVPCS
B3: IL1a: interleukin modulator, 1 ng/ml; Sigma Aldrich (protein, UniProt P01583 113-271, looked up)
Interleukin-1 alpha: SAPFSFLSNVKYNFMRIIKYEFILNDALNQSIIRANDQYLTAAALHNLDEAVKFDMGAYKSSKDDAKITVILRISKTQLYVTAQDEDQPVLLKEMPEIPKTITGSETNLLFFWETHGTKNYFTSVAHPNLFIATKQDYWVCLAGGPPSITDFQILENQA

Tests used:
Format in all cases: cell-based, human
BT20 cells = assay: PD-L1 western blot after modulators (EM and MTAs); conditions: Breast BT20, 30 minutes, 3 hours, 24 hours
Source text: (§1) Cell lines were acquired from ATCC, Sigma, or DSMZ. Human non-small cell lung carcinoma (NSCLC) cell lines H292 (ATCC no. CRL-1848.), H1299 (ATCC no. CRL-5803), H520 (ATCC no. CRL-5811), CALU6 (ATCC no. HTB-56), H1975 (ATCC no. CRL-5908), H460 (ATCC no. HTB-177), H2126 (ATCC no. CCL-256), H1650 (ATCC no. CRL-5883), and H2087 (ATCC no. CRL-5922) were used for this experiment along with head and neck squamous cell carcinoma (HNSCC) cell lines BHY (DSMZ ACC 404), CAL27 (ATCC no. CRL-2095), KYSE410 (Sigma), and A253 (ATCC no. HTB-41), melanoma cell lines A375 (ATCC no. CRL-1619), COL0853 (Sigma), and MM127 (Sigma) pancreatic cancer cell lines BXPC3 (ATCC no. CRL-1687), colorectal cancer cell lines […], HCT116 (ATCC no. CCL-247EMT), and breast cancer cell lines BT549 (ATCC no. HTB-122), BT20 (ATCC no. HTB-19), and T47D (ATCC no. HTB-133). Cells were maintained in manufacturer-recommended conditions at 37° C. inside humidified 5% CO2 incubators. Sub-cultivation and harvesting for all cell lines were performed using Accutase (GIBCO Life Technologies; cat. no. A1110501) at 37° C. for 10 minutes. Cell viability was measured using trypan blue exclusion staining in conjunction with the Countess II Automated Cell Counter (Thermo Fischer Scientific; cat. no. AMQAX1000). Measurements were made in duplicate and the average number of viable cells was recorded prior to experiments.
(§2) Enhancer Molecule and Therapies: IFNγ, (10 ng/ml; Sigma Aldrich, cat.no 11040596001), TNFα (10 ng/ml; BD Biosciences cat. no. 554618), Osimertinib (100 ng/ml; Selleckchem cat.no. S7297), Everolimus (100 ng/ml; Selleckchem cat.no S1120), GSK458 (10 ng/ml; Selleckchem cat. no. S2658), TNFb (50 ng/ml; Sigma Aldrich cat. no.), GSK795 (1,000 ng/ml; Selleckchem cat. no. S7492), IL-12 (50 ng/ml; Sigma Aldrich SRP3073), GM-CSF (50 ng/ml; Sigma Aldrich cat. no. G5035), IL-1a (1 ng/ml; Sigma Aldrich cat. no. 12778-), IL-6 (50 ng/ml; Sigma Aldrich), IL-17 (100 ng/ml; Sigma Aldrich cat. no. SRP3080), TGFb (1 ng/ml; Sigma Aldrich cat. no. T7039), and IL-10 (50 ng/ml; Sigma Aldrich cat. no. SRP3071) were administered to cell lines for various times including 30 minutes, 3 hour, and 24 hour time intervals prior to cell lysis and protein extraction.
(§3) To determine the effects of the aforementioned molecules on the modulation of PD-L1, we selected various NSCLC, HNSCC, breast cancer, melanoma, colorectal cancer, and pancreatic cancer cell lines as examples. Other diseases or cell lines could be used readily as could more complex samples such as cells isolated from xenografts and clinical samples. Cells were plated, for three different time points (30 minutes, 3 hours, and 24 hours), inside 6-well petri dishes with 2 mL of appropriate medium. Plates were incubated for 24 hours in 5% CO2 incubators at 37° C. After 24 hours, each 6-well plate was washed with PBS (Gibco Life Technologies, cat. no. 10010023) followed by fresh media being added along with each cell line's vehicle control or appropriate modulator for each specific time point, and were placed in CO2 incubators until their modulation time point was reached. Other conditions can be readily used, such as processing on automated systems such as SnapPath. At the end of each time point, while keeping plates on ice, cell lysis was conducted by aspirating culture medium from each plate, washing of each plate three times with 5 ml of cold PBS (Gibco Life Technologies, cat. no. 10010023) and culminated with the addition of cold 1× lysis buffer containing (Cell Signaling, cat. no. 9803 S) protease inhibitor cocktail (Cell Signaling, cat. no. 5871S), phosphatase inhibitor cocktail (Cell Signaling, cat. no. 5870S), and PMSF (Fisher Scientific, cat. no. ICN19538101). Plates were then placed on ice for ten minutes, swirling each plate intermittently. Aliquots of protein lysates were prepared and then stored at −80° C. until protein quantification and Western blot analysis was to be conducted. […]

BxPC3 cells = assay: PD-L1 western blot after modulators (EM and MTAs); conditions: Pancreatic BxPC3, 30 minutes, 3 hours, 24 hours
Source text: as §1, §2, §3

H292 cells = assay: PD-L1 western blot after modulators (EM and MTAs); conditions: NSCLC H292, 30 minutes, 3 hours, 24 hours
Source text: as §1
(§4) T7039), and IL-10 (50 ng/ml; Sigma Aldrich cat. no. SRP3071) were administered to cell lines for various times including 30 minutes, 3 hour, and 24 hour time intervals prior to cell lysis and protein extraction.
(§5) To determine the effects of the aforementioned molecules on the modulation of PD-L1, we selected various NSCLC, HNSCC, breast cancer, melanoma, colorectal cancer, and pancreatic cancer cell lines as examples. Other diseases or cell lines could be used readily as could more complex samples such as cells isolated from xenografts and clinical samples. Cells were plated, for three different time points (30 minutes, 3 hours, and 24 hours), inside 6-well petri dishes with 2 mL of appropriate medium. Plates were incubated for 24 hours in 5% CO2 incubators at 37° C. After 24 hours, each 6-well plate was washed with PBS (Gibco Life Technologies, cat. no. 10010023) followed by fresh media being added along with each cell line's vehicle control or appropriate modulator for each specific time point, and were placed in CO2 incubators until their modulation time point was reached. Other conditions can be readily used, such as processing on automated systems such as SnapPath. At the end of each time point, while keeping plates on ice, cell lysis was conducted by aspirating culture medium from each plate, washing of each plate three times with 5 ml of cold PBS (Gibco Life Technologies, cat. no. 10010023) and culminated with the addition of cold 1× lysis buffer containing (Cell Signaling, cat. no. 9803 S) protease inhibitor cocktail (Cell Signaling, cat. no. 5871S), phosphatase inhibitor cocktail (Cell Signaling, cat. no. 5870S), and PMSF (Fisher Scientific, cat. no. ICN19538101). Plates were then placed on ice for ten minutes, swirling each plate intermittently. Aliquots of protein lysates were prepared and then stored at −80° C. until protein quantification and Western blot analysis was to be conducted. The protein concentration of each lysate was analyzed by using the Pierce 660 Protein Assay Reagent (Thermo Fisher Scientific, cat. no. 22660) and testing of each sample was conducted in duplicate. Two μg of protein was then loaded per lane into 10% Midi-PROTEAN TGX Precast Gels (Bio Rad, cat. no. 5671034) along with Kaleidoscope Prestained Protein Standard (BioRad, cat. no. 1610375) which ran at 220V for 45 minutes. Proteins were transferred to mini-PVDF membranes (BioRad, cat. no. 1704156) in 3 minutes using the Trans-Blot Turbo Transfer System (BioRad, cat. no. 1704150EDU).

[1] = tested on: various NSCLC, HNSCC, breast cancer, melanoma, colorectal cancer, and pancreatic cancer cell lines; assay: PD-L1 western blot after modulators, summary over all samples; conditions: depending on the sample, summary of Table 3
Source text: as §1, §4, §5

BHY cells = assay: PD-L1 western blot after modulators (EM and MTAs); conditions: Head and neck BHY, 30 minutes, 3 hours, 24 hours
Source text: as §1, §2, §3

CAL27 cells = assay: PD-L1 western blot after modulators (EM and MTAs); conditions: Head and neck CAL27, 30 minutes, 3 hours, 24 hours
Source text: as §1, §2, §3

H1975 cells = assay: PD-L1 western blot after modulators (EM and MTAs); conditions: NSCLC H1975, 30 minutes, 3 hours, 24 hours
Source text: as §1, §2, §3

BT549 cells = assay: PD-L1 western blot after modulators (EM and MTAs); conditions: Breast BT549, 30 minutes, 3 hours, 24 hours
Source text: as §1, §4, §5

KYSE410 cells = assay: PD-L1 western blot after modulators (EM and MTAs); conditions: Head and neck KYSE410, 30 minutes, 3 hours, 24 hours
Source text: as §1, §2, §3

H2087 cells = assay: PD-L1 western blot after modulators (EM and MTAs); conditions: NSCLC H2087, 30 minutes, 3 hours, 24 hours
Source text: as §1, §2, §3

H1650 cells = assay: PD-L1 western blot after modulators (EM and MTAs); conditions: NSCLC H1650, 30 minutes, 3 hours, 24 hours
Source text: as §1, §4, §5

H2126 cells = assay: PD-L1 western blot after modulators (EM and MTAs); conditions: NSCLC H2126, 30 minutes, 3 hours, 24 hours
Source text: as §1, §2, §3

Molecule | PD-L1 Response (BT20 cells) | PD-L1 Response (H292 cells) | regulation of PD-L1 across samples [1] | PD-L1 Response (H1975 cells) | also measured
COc1ncc(-c2ccc3nccc(-c4ccnnc4)c3c2)cc1NS(=O)(=O)c1ccc(F)cc1F [GSK458, reference compound] | Up | Down | both up and down regulation |  | PD-L1 Response (BxPC3 cells): Up
Cn1ncc(Cl)c1-c1cc(C(=O)N[C@H](CN)Cc2ccc(F)c(F)c2)oc1Cl [GSK795, reference compound] |  |  |  | Down | PD-L1 Response (BHY cells): Up; PD-L1 Response (CAL27 cells): Up; PD-L1 Response (BT549 cells): Up
C=CC(=O)Nc1cc(Nc2nccc(-c3cn(C)c4ccccc34)n2)c(OC)cc1N(C)CCN(C)C [Osimertinib, reference compound] |  | Down | both up and down regulation |  | PD-L1 Response (BHY cells): Up; PD-L1 Response (KYSE410 cells): Up
CO[C@H]1C[C@@H]2CC[C@@H](C)[C@@](O)(O2)C(=O)C(=O)N2CCCC[C@H]2C(=O)O[C@H]([C@H](C)C[C@@H]2CC[C@@H](OCCO)[C@H](OC)C2)CC(=O)[C@H](C)/C=C(\C)[C@@H](O)[C@@H](OC)C(=O)[C@H](C)C[C@H](C)/C=C/C=C/C=C/1C [everolimus, Everolimus] |  | Down | both up and down regulation |  | PD-L1 Response (BxPC3 cells): Up
GM-CSF: enhancer molecule, 50 ng/ml; Sigma Aldrich |  |  | only led to upregulation |  | PD-L1 Response (H2087 cells): Up
TGFb: enhancer molecule, 1 ng/ml; Sigma Aldrich |  |  | only led to upregulation |  | 
B1 | Up |  | both up and down regulation | Up | PD-L1 Response (H2087 cells): Down; PD-L1 Response (H1650 cells): Up
B2 |  |  |  | Down | 
B3 | Up | Up | only led to upregulation | Up | PD-L1 Response (H2126 cells): Up; PD-L1 Response (KYSE410 cells): Up; PD-L1 Response (BT549 cells): Up; PD-L1 Response (H1650 cells): Up

From patent US20220347267A1, “METHODS TO IMPROVE PATIENT RESPONSE TO IMMUNE CHECKPOINT INHIBITORS AND FUNCTIONAL TESTS TO PREDICT RESPONSE” (Biomarker Strategies, LLC, priority 2019, published 2022)
